Experimental data published in PubChem BioAssay (NCI).
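Compound exposure: 48 hours, 5 concentrations, 96-well plates. Definition used: TGI = concentration required for complete inhibition of growth.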

Legend:
Assay in all cases: DTP human tumour cell line panel, 48 h
786-0 renal = tested on: 786-0 renal
A498 renal = tested on: A498 renal
A549 NSCLC = tested on: A549 NSCLC
ACHN renal = tested on: ACHN renal
BT-549 breast = tested on: BT-549 breast
CAKI-1 renal = tested on: CAKI-1 renal
CCRF-CEM leukemia = tested on: CCRF-CEM leukemia
COLO 205 colon = tested on: COLO 205 colon
DU-145 prostate = tested on: DU-145 prostate
EKVX NSCLC = tested on: EKVX NSCLC
HCC-2998 colon = tested on: HCC-2998 colon
HCT-116 colon = tested on: HCT-116 colon
HCT-15 colon = tested on: HCT-15 colon
HL-60(TB) leukemia = tested on: HL-60(TB) leukemia
HOP-62 NSCLC = tested on: HOP-62 NSCLC
HOP-92 NSCLC = tested on: HOP-92 NSCLC
HS 578T breast = tested on: HS 578T breast
HT29 colon = tested on: HT29 colon
IGROV1 ovarian = tested on: IGROV1 ovarian
K-562 leukemia = tested on: K-562 leukemia
KM12 colon = tested on: KM12 colon
LOX IMVI melanoma = tested on: LOX IMVI melanoma
M14 melanoma = tested on: M14 melanoma
MALME-3M melanoma = tested on: MALME-3M melanoma
MCF7 breast = tested on: MCF7 breast
MDA-MB-231 breast = tested on: MDA-MB-231 breast
MDA-MB-435 = tested on: MDA-MB-435
MDA-N = tested on: MDA-N
MOLT-4 leukemia = tested on: MOLT-4 leukemia
NCI-H226 lung = tested on: NCI-H226 lung
NCI-H23 lung = tested on: NCI-H23 lung
NCI-H460 lung = tested on: NCI-H460 lung
NCI-H522 lung = tested on: NCI-H522 lung
OVCAR-3 ovarian = tested on: OVCAR-3 ovarian
OVCAR-4 ovarian = tested on: OVCAR-4 ovarian
OVCAR-5 ovarian = tested on: OVCAR-5 ovarian
OVCAR-8 ovarian = tested on: OVCAR-8 ovarian
PC-3 prostate = tested on: PC-3 prostate
RPMI-8226 leukemia = tested on: RPMI-8226 leukemia
RXF 393 renal = tested on: RXF 393 renal
SF-268 CNS = tested on: SF-268 CNS
SF-295 CNS = tested on: SF-295 CNS
SF-539 CNS = tested on: SF-539 CNS
SK-MEL-2 melanoma = tested on: SK-MEL-2 melanoma
SK-MEL-28 melanoma = tested on: SK-MEL-28 melanoma
SK-MEL-5 melanoma = tested on: SK-MEL-5 melanoma
SK-OV-3 ovarian = tested on: SK-OV-3 ovarian
SN12C renal = tested on: SN12C renal
SNB-19 CNS = tested on: SNB-19 CNS
SNB-75 CNS = tested on: SNB-75 CNS
SR leukemia = tested on: SR leukemia
SW-620 colon = tested on: SW-620 colon
T-47D breast = tested on: T-47D breast
TK-10 renal = tested on: TK-10 renal
U251 CNS = tested on: U251 CNS
UACC-257 melanoma = tested on: UACC-257 melanoma
UACC-62 melanoma = tested on: UACC-62 melanoma
UO-31 renal = tested on: UO-31 renal
NCI/ADR-RES ovarian = tested on: NCI/ADR-RES ovarian

Q: Which results are given for `CC1CC2=C(C1)C(C1(C)C(=O)CC3C(C1=O)C3(C)C)C(C)C2=O` (stereo not drawn)?
A: TGI (786-0 renal): > 100 µM; TGI (A498 renal): > 100 µM; TGI (A549 NSCLC): > 100 µM; TGI (ACHN renal): > 100 µM; TGI (BT-549 breast): > 100 µM; TGI (CAKI-1 renal): > 100 µM; TGI (CCRF-CEM leukemia): > 100 µM; TGI (COLO 205 colon): > 100 µM; TGI (DU-145 prostate): > 100 µM; TGI (EKVX NSCLC): > 100 µM; TGI (HCC-2998 colon): > 100 µM; TGI (HCT-116 colon): > 100 µM; TGI (HCT-15 colon): > 100 µM; TGI (HL-60(TB) leukemia): > 100 µM; TGI (HOP-62 NSCLC): > 100 µM; TGI (HOP-92 NSCLC): > 100 µM; TGI (HS 578T breast): > 100 µM; TGI (HT29 colon): > 100 µM; TGI (IGROV1 ovarian): > 100 µM; TGI (K-562 leukemia): > 100 µM; TGI (KM12 colon): > 100 µM; TGI (LOX IMVI melanoma): > 100 µM; TGI (M14 melanoma): > 100 µM; TGI (MALME-3M melanoma): > 100 µM; TGI (MCF7 breast): > 100 µM; TGI (MDA-MB-231 breast): > 100 µM; TGI (MDA-MB-435): > 100 µM; TGI (MDA-N): > 100 µM; TGI (MOLT-4 leukemia): > 100 µM; TGI (NCI-H226 lung): > 100 µM; TGI (NCI-H23 lung): > 100 µM; TGI (NCI-H460 lung): > 100 µM; TGI (NCI-H522 lung): > 100 µM; TGI (OVCAR-3 ovarian): > 100 µM; TGI (OVCAR-4 ovarian): > 100 µM; TGI (OVCAR-5 ovarian): > 100 µM; TGI (OVCAR-8 ovarian): > 100 µM; TGI (PC-3 prostate): > 100 µM; TGI (RPMI-8226 leukemia): > 100 µM; TGI (RXF 393 renal): > 100 µM; TGI (SF-268 CNS): > 100 µM; TGI (SF-295 CNS): > 100 µM; TGI (SF-539 CNS): > 100 µM; TGI (SK-MEL-2 melanoma): > 100 µM; TGI (SK-MEL-28 melanoma): > 100 µM; TGI (SK-MEL-5 melanoma): > 100 µM; TGI (SK-OV-3 ovarian): > 100 µM; TGI (SN12C renal): > 100 µM; TGI (SNB-19 CNS): > 100 µM; TGI (SNB-75 CNS): > 100 µM; TGI (SR leukemia): > 100 µM; TGI (SW-620 colon): > 100 µM; TGI (T-47D breast): > 100 µM; TGI (TK-10 renal): > 100 µM; TGI (U251 CNS): > 100 µM; TGI (UACC-257 melanoma): > 100 µM; TGI (UACC-62 melanoma): > 100 µM; TGI (UO-31 renal): > 100 µM

Q: What does the source list for `N#Cc1c(-c2ccc(Cl)cc2)cc(-c2ccc(Nc3ccnc4cc(C(F)(F)F)ccc34)cc2)nc1N`?
A: TGI (786-0 renal): 38.4 µM; TGI (A498 renal): 33.8 µM; TGI (A549 NSCLC): > 100 µM; TGI (ACHN renal): 36.8 µM; TGI (BT-549 breast): > 100 µM; TGI (CAKI-1 renal): > 100 µM; TGI (CCRF-CEM leukemia): 56.5 µM; TGI (COLO 205 colon): > 100 µM; TGI (DU-145 prostate): > 100 µM; TGI (EKVX NSCLC): > 100 µM; TGI (HCC-2998 colon): > 100 µM; TGI (HCT-116 colon): 22.4 µM; TGI (HCT-15 colon): 38.4 µM; TGI (HOP-62 NSCLC): 42.9 µM; TGI (HT29 colon): 31.5 µM; TGI (IGROV1 ovarian): > 100 µM; TGI (K-562 leukemia): 46.9 µM; TGI (KM12 colon): > 100 µM; TGI (LOX IMVI melanoma): > 100 µM; TGI (M14 melanoma): 49.6 µM; TGI (MALME-3M melanoma): > 100 µM; TGI (MCF7 breast): > 100 µM; TGI (MDA-MB-231 breast): 71.2 µM; TGI (MDA-MB-435): 42.7 µM; TGI (MDA-N): > 100 µM; TGI (MOLT-4 leukemia): 37.5 µM; TGI (NCI-H226 lung): 51.1 µM; TGI (NCI-H23 lung): > 100 µM; TGI (NCI-H460 lung): > 100 µM; TGI (NCI-H522 lung): 75.9 µM; TGI (NCI/ADR-RES ovarian): > 100 µM; TGI (OVCAR-4 ovarian): 42 µM; TGI (OVCAR-5 ovarian): 88.2 µM; TGI (OVCAR-8 ovarian): > 100 µM; TGI (PC-3 prostate): > 100 µM; TGI (RPMI-8226 leukemia): > 100 µM; TGI (RXF 393 renal): 64.5 µM; TGI (SF-268 CNS): > 100 µM; TGI (SF-295 CNS): 38.8 µM; TGI (SF-539 CNS): 33.2 µM; TGI (SK-MEL-2 melanoma): 62.4 µM; TGI (SK-MEL-28 melanoma): 48.2 µM; TGI (SK-MEL-5 melanoma): > 100 µM; TGI (SK-OV-3 ovarian): > 100 µM; TGI (SN12C renal): 59 µM; TGI (SNB-19 CNS): 30.6 µM; TGI (SNB-75 CNS): 46.2 µM; TGI (SR leukemia): 16.4 µM; TGI (SW-620 colon): > 100 µM; TGI (T-47D breast): 43.2 µM; TGI (TK-10 renal): 81.4 µM; TGI (U251 CNS): 38 µM; TGI (UACC-257 melanoma): > 100 µM; TGI (UACC-62 melanoma): 37.8 µM; TGI (UO-31 renal): 34.3 µM
